For one experiment, the system named is A/H1N1 virus. The experiment is described as follows: microbe, parasite or virus in culture. In kind it is cell-based, influenza A virus. The note with it: Influenza A virus, H1N1, MDCK, read-out: IC50 baloxavir (active form).
In experiment [1] the test system is A/H1N1 I38T (I38T mutation on the PA subunit, baloxavir-resistant). Type of experiment: cell-based, influenza A virus.
The test system of experiment [2] is influenza virus with M431I substitution in PB2. The following applies: cited from earlier work.

Broadly, the IC50 is the point on the concentration scale where inhibition reaches its midpoint.

As to `O=C1c2c(O)c(=O)ccn2N([C@@H]2c3ccccc3SCc3c2ccc(F)c3F)[C@@H]2COCCN12` [baloxavir, baloxavir acid], the IC50 in the experiment on A/H1N1 virus amounted to 0.2 nM. `COc1ccc([C@@H]2Sc3ccccc3N(CCN(C)C)C(=O)[C@@H]2OC(C)=O)cc1.Cl` [diltiazem]: the “transepithelial resistance (TEER), integrity of infected epithelia” value in experiment [1] is given as “remain stable”. Turning to `O=C(O)[C@H]1C2CCC(CC2)[C@@H]1Nc1nc(-c2c[nH]c3ncc(F)cc23)ncc1F` [pimodivir], the decrease in sensitivity result in experiment [2] is recorded as “around 60 fold”.

(Values after patent US12440498B2 (priority 2020, dated 2025).)
